Data on two compounds can be found in ChEMBL document CHEMBL1130170, “Orally active trifluoromethyl ketone inhibitors of human leukocyte elastase” (J Med Chem, 1997).

Usually AUC stands for the area under the concentration-time curve, a measure of exposure. A high value points to high exposure. For orientation: Cmax means the maximum level reached in the sampled fluid or tissue. What is called bioavailability is dose-corrected exposure relative to a reference, in per cent. Higher therefore signals much systemic uptake. In general, Tmax refers to the time from dosing to the highest level. As usually defined, the ED50 is the dose that gives a 50% effect, or the effect in half of the subjects. The inhibition in vivo is the share of the control response that was lost under treatment. In general, Inhibition refers to the change of the read-out against control, counted positive when it falls. Low readings indicate a response near the control, high ones a response far below the control.

Where a SMILES comes first, the peptide text is derived from it. The star is where a group is joined. CF3 = FC(F)(F)*; Moc = COC(=O)*

A short description of series [1]: Oral integrated area under the concentration vs time curve, for compound in dog plasma. It is filed as ADME, organism-based, Canis lupus familiaris.
Series [2] is described as follows: Oral integrated area under the concentration vs time curve, for compound in rat plasma. The series is classed as ADME, organism-based.
A short description of series [3]: Intravenous integrated area under the concentration vs time curve, for compound in dog plasma. It is filed as ADME, organism-based, Canis lupus familiaris.
Series [4] is described as follows: Intravenous integrated area under the concentration vs time curve, for compound in hamster plasma. The note with it: cricetinae. It is filed as ADME, organism-based.
Series [5] is described as follows: Maximum concentration of the unchanged compound in dog plasma, recorded in the period 0-6 hr post dose. The series is classed as ADME, organism-based, Canis lupus familiaris.
The nature of series [6]: Maximum concentration of the unchanged compound in hamster plasma, recorded in the period 0-6 hr post dose. It is filed as ADME, organism-based. The note with it: cricetinae.
The nature of series [7]: Bioavailability in hamster. Particulars: chinese hamster, in vivo. The series is classed as ADME, organism-based, Cricetulus griseus.
Series [8] can be described thus: Bioavailability in rat. The series is classed as ADME, organism-based. The note with it: in vivo.
Series [9] is described as follows: Time of maximum concentration of compound in dog plasma. The series is classed as ADME, organism-based, Canis lupus familiaris.
Series [10] concerns the target T1, Angiotensin-converting enzyme (Oryctolagus cuniculus, UniProt P12822).
T1 sequence (P12822 whole entry): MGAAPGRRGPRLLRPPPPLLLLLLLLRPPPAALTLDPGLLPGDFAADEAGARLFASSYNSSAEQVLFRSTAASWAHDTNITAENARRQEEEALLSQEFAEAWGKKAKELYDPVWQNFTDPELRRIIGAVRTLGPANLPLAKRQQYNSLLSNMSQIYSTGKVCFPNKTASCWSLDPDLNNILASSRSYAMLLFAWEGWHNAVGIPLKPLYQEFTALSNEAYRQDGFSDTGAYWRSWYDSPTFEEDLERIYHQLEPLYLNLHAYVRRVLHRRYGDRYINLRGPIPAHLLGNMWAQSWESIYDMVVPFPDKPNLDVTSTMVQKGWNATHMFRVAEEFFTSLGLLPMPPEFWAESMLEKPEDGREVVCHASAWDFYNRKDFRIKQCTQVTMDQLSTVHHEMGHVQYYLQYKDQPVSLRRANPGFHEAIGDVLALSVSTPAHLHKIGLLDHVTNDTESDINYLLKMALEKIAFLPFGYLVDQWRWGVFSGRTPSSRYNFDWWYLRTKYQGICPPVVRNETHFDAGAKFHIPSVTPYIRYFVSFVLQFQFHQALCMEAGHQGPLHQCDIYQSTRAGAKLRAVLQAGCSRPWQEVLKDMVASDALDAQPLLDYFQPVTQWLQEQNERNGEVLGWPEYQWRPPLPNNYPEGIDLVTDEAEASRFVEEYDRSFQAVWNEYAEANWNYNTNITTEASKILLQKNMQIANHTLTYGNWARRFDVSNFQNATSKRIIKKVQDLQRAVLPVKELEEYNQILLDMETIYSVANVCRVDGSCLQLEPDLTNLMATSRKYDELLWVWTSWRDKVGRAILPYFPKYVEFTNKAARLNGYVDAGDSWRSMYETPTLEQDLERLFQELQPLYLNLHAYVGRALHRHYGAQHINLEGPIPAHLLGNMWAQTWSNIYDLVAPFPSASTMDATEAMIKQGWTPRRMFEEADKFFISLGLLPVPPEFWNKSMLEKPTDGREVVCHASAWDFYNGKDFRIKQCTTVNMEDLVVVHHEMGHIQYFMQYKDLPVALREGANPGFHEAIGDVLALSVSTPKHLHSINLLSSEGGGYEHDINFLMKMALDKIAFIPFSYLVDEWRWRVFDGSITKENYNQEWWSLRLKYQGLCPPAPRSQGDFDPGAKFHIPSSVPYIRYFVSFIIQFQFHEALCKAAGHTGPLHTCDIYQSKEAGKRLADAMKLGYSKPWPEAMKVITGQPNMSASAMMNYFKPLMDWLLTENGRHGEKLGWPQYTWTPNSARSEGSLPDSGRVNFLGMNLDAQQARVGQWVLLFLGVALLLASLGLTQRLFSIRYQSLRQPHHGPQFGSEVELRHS
The series can be described thus: Binding affinity for rabbit lung Angiotensin I converting enzyme; No inhibition at 188 uM (highest concentration tested).

Series [11] deals with Cricetinae gen. sp. The series can be described thus: Effective dose in the Acute Hemarrhagic Assay model after i.v. administration. The series is classed as functional, Cricetulus griseus. The note with it: iv.
For series [12], the system named is Cricetinae gen. sp. Nature of the series: Effective dose in the Acute Hemarrhagic Assay model after oral administration. The series is classed as functional, Cricetulus griseus.
The subject of series [13] is Cricetinae gen. sp. The series can be described thus: Percent inhibition of elastase-induced lung damage by 10 mg/kg dosed orally, 30 minutes prior to the instillation of 50 ug of elastase. The series is classed as functional, Cricetulus griseus.
In another series the target is Kallikrein-1 (Homo sapiens, UniProt P06870). The series can be described thus: Binding affinity for human urine kallikrein; No inhibition at 188 uM (highest concentration tested).
For another series, the target named is T2, Monoamine oxidase (Homo sapiens, UniProt P21397+P27338).
T2 sequence (P21397 whole entry): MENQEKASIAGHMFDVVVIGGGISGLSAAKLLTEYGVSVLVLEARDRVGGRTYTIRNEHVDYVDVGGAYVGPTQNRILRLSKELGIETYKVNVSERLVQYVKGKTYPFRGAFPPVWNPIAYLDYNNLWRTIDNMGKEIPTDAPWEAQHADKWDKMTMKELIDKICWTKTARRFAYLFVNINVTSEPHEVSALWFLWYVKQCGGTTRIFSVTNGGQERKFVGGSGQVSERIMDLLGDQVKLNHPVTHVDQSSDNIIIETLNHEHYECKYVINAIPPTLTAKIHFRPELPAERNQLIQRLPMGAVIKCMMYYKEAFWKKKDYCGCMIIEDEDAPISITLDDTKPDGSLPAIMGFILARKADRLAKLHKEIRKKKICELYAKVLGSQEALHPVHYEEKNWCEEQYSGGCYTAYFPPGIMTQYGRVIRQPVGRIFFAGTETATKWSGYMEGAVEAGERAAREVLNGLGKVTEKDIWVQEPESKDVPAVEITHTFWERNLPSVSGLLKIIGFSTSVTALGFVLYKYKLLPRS
T2 sequence (P27338 whole entry): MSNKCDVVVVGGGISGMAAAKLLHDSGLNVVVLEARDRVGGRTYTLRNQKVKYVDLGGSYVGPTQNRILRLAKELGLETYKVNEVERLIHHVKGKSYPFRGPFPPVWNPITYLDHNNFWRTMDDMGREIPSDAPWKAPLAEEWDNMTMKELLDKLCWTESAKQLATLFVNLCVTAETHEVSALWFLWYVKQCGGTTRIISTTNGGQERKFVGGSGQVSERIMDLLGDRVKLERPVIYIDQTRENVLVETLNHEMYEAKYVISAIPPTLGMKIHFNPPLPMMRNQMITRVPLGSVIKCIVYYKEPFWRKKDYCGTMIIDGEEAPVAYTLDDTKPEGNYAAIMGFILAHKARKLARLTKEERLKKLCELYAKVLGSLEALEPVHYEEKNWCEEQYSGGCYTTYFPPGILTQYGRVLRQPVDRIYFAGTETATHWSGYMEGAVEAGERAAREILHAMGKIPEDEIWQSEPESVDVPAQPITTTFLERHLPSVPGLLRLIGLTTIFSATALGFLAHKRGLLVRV
The series can be described thus: Binding affinity for human plasma monoamine oxidase; No inhibition at 188 uM (highest concentration tested). It is filed as cell-free.

The nature of series [14]: Intravenous integrated area under the concentration vs time curve, for compound in rat plasma. The series is classed as ADME, organism-based.
For another series, the target named is Prothrombin (Homo sapiens, UniProt P00734). The series can be described thus: Binding affinity for human plasma thrombin; No inhibition at 188 uM (highest concentration tested). The series is classed as cell-free.

Kallikrein-1, sequence (P06870 whole entry): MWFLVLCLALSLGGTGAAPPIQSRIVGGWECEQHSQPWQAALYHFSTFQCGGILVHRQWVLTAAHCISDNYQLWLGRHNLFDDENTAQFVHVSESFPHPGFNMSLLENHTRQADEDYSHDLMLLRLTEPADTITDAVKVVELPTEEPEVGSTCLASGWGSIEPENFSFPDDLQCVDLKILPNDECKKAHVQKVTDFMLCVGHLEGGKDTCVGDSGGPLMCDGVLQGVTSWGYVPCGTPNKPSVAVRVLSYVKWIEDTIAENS

In the case of `COC(=O)N[C@H](C(=O)N1CCC[C@H]1C(=O)N[C@H](C(=O)C(F)(F)F)C(C)C)C(C)C` (Moc-Val-Pro-Val-CF3), the exposure (AUC) in [1] was 6.54 µg·h/mL; in series [2], 5.48 µg·h/mL; in series [3], 9.37 µg·h/mL; in series [4] it was 2.89 µg·h/mL; in series [14] it was 6.54 µg·h/mL. Further, the Cmax was 5.44 µg/mL in series [5] and 1.46 µg/mL in series [6]. The figures for the bioavailability in series [7] and in series [8] were 75% and 84%, respectively. The time to peak (Tmax) in series [9] was found to be 19.8 min. The Ki result (in series [10]; on Kallikrein-1; at Monoamine oxidase; on Prothrombin) was “No inhibition” in each case. Further, the ED50 with Cricetinae gen. sp. [11] is 0.51 mg/kg; in the series with Cricetinae gen. sp. [12], 2 mg/kg. The compound also had an inhibition in vivo at 10 mg/kg in the series on Cricetinae gen. sp. [13] (Cricetinae gen. sp., po) of 92%.

For the compound `COc1ccc(C(=O)N[C@H](C(=O)N2CCC[C@H]2C(=O)N[C@H](C(=O)C(F)(F)F)C(C)C)C(C)C)cc1` (stereo in doubt; 1k), the AUC amounted to 1.25 µg·h/mL in [1]; 1.4 µg·h/mL in series [2]; 3.18 µg·h/mL in [3]; 1.36 µg·h/mL in series [4]; 1.7 µg·h/mL in series [14]. Besides, the values for the Cmax in [5] and in [6] were 0.382 µg/mL and 0.373 µg/mL, respectively. In addition, the bioavailability was 26% in series [7] and 82% in series [8]. Moreover, in [9], the Tmax is 30 min. Moreover, the Ki result (in series [10]; at Kallikrein-1; at Monoamine oxidase; at Prothrombin) was “No inhibition” each time. Moreover, the figures for the ED50 with Cricetinae gen. sp. [11] and in the series with Cricetinae gen. sp. [12] were 0.59 mg/kg and 4.9 mg/kg, respectively. The Inhibition in the series on Cricetinae gen. sp. [13] (10 mg/kg) worked out at 84%.
